Test results: patent US11833154B2, “Methods of treatment of myeloproliferative neoplasm” (priority 2017, dated 2023)

Experiments:
[1] = test system: IDH2^R140Q JAK2^V617F MPN cells (CD45.2^+); experiment: Paired donor chimerism in peripheral blood before and after treatment; assay type: in vivo, mice; settings: four weeks of treatment, vehicle +4.236
Procedure: (§1) Dissected femurs and tibias were isolated. Bone marrow was flushed into PBS+2% BSA or RPMI+10% FCS using a syringe or by centrifuge spin. Spleens were isolated and single cell suspensions made by mechanical disruption using glass slides. All harvested cells were passed through a […] strainer. Red blood cells (RBCs) were lysed in ammonium chloride-potassium bicarbonate lysis buffer for 10 min on ice. Cells were transplanted by via tail vein injection into lethally irradiated (2×550 Rad) CD45.1 host mice. For noncompetitive transplants, 1×10^6 total cells were transplanted; for competitive transplants including drug studies, 1×10^6 total donor cells were injected in a mixture with 1×10^6 cells from a congenic CD45.1 donor; for cell of origin transplants, injection number was determined based on the lowest yield after sort to inject approximately 100,000 MPP or 300 LT-HSC with 300,000 whole bone marrow cells from a CD45.1 donor.
(§2) Cells were stained with antibodies in FACS Buffer (2% Bovine Serum Albumin in phosphate-buffered saline (PBS)) for 30 min on ice. Donor and support chimerism was assessed using antibodies against CD45.1 (Clone A20, Biolegend) and CD45.2 (Clone 104, BioLegend).

JAK2/IDH2-mutant MPN [2] = experiment: Bone marrow stem and progenitor populations by FACS in treated recipients; assay type: in vivo, mice; settings: for Erythrocyte progenitors: Pre-erythrocytes / Pre-MegE populations / Erythrocyte progenitors: CFU-E / Erythrocyte progenitors: Pre-CFU-E: bone marrow FACS; for Erythrocyte progenitors: Pre-erythrocytes / Pre-MegE populations / Erythrocyte progenitors: CFU-E / Erythrocyte progenitors: Pre-CFU-E / Total LSK number in the bone marrow: four weeks of treatment; for Erythrocyte progenitors: Pre-erythrocytes / Pre-MegE populations: vehicle 0.1757; for Erythrocyte progenitors: CFU-E: vehicle 1.621; for Erythrocyte progenitors: Pre-CFU-E: vehicle mean 0.5189%; for Total LSK number in the bone marrow: double mutant mice, vehicle mean 57.19×10^3
Procedure: as §1, §2
Cells were also stained with antibodies specific to c-Kit/CD117 (clone 2B8, BioLegend), Sca-1 (clone D7, BioLegend), FcγRII/III/CD16/32 (clone 2.4G2, eBiosciences) and CD34 (clone RAM34, eBiosciences) or SLAM/CD150 (TC15-12F12.2, BioLegend) and CD48 (HM48-1, eBioscience). To assess mature cell lineages we used a combination of antibodies against Mac1, Gr-1, B220, CD3, cKit/CD117, CD45.1, and CD45.2.
To assess erythroid and megakaryocyte progenitors we stained unlysed tissues with a lineage cocktail including CD4, CD8, B220/CD45R, Mac1/CD11b, Gr-1, IL7R/CD127 (A7R34, BioLegend), CD49b (DX5, BioLegend). Antibodies were also used against c-Kit/CD117, Sca-1, SLAM/CD150, CD48, FcγRII/III/CD16/32, CD41 (eBioMWReg30, eBioscience), CD105 (MJ7/18, BioLegend), CD71 (RI7217, BioLegend), and Ter119 and gated as described by Pronk et al., Elucidation of the Phenotypic, Functional, and Molecular Topography of a Myeloerythroid Progenitor Cell Hierarchy, Cell Stem Cell 2007; 1:428-42.

[3] = test system: JAK2/IDH2-mutant MPN/AML cells; experiment: FACS of cell surface markers on cultured human colony cells; assay type: cell-based; settings: cultured patient cells, 400 nM
Procedure: (§3) Frozen or fresh PBMCs were plated in Methocult H4435 (Stem Cell) with penicillin and streptomycin in triplicate wells. MPN patient cells were plated after enrichment using CD34 Microbeads (Miltenyi) at 1,000 cells per well; AML patient cells were plated without enrichment at 100,000 cells per well.
To observe monocytic and granulocytic differentiation, antibodies against CD117/cKit, CD34, CD38, CD15 (HI98, eBioscience), CD14 (HCD14, BioLegend), and CD16 (3G8, BioLegend) were used.

JAK2/IDH2 mutant MPN = experiment: Histology of bone marrow and spleen of treated recipients; assay type: in vivo, mice
Procedure: Pathology was obtained after fixation in 4% paraformaldehyde (PFA); blood smears and bone marrow cytospins were performed on the day of sacrifice. Sections were stained with hematoxylin and eosin stain or Wright Giemsa stain as appropriate. CD34+ staining was performed using CD34, Rat Monoclonal Antibody Performed on a Leica Bond™ RX using the Bond™ Polymer Refine Detection Kit (Cat. No. DS9800). The sections stained with CD34 (Abcam, Cat. Ab8158 diluted 1:50) were pre-treated using heat mediated antigen retrieval with Citrate, pH6 (Leica Biosystem Epitope Retrieval 1, Cat. No. AR9961) for 20 min. DAB was used as the chromogen, counterstained with hematoxylin and mounted.

[4] = test system: IDH2^R140Q JAK2^V61F mutant cells; experiment: Serum 2HG levels in treated transplant recipient mice (LC-MS); assay type: in vivo; settings: mice engrafted with IDH2^R140Q JAK2^V617F cells; oral AG221 40-100 mg/kg, ruxolitinib 60 mg per kg, BID; at sacrifice after four weeks; vehicle mean 1874
Procedure: as §1
2HG was extracted from serum using 80% aqueous methanol, as described by Lu et al., […]. […] All extracts were spun at 13,000 rpm at 4° C. to remove precipitate, dried at room temperature, and stored at −80° C.

JAK2/IDH2-mutant MPN [5] = experiment: Therapeutic assay: spleen weight, hematocrit and leukocyte count at sacrifice; assay type: in vivo, mice; settings: IDH2^R140Q JAK2^V617F bone marrow recipients, four weeks of treatment; vehicle mean 289.1
Procedure: as §1

[6] = test system: JAK2/IDH2-mutant MPN cell metabolism; experiment: LC/MS metabolite analysis of bone marrow aspirates from treated mice; assay type: in vivo, mouse
Procedure: External mass calibration was performed using the standard calibration mixture every 7 days. […] Buffer A was 20 mM ammonium carbonate, 0.1% ammonium hydroxide; buffer B was acetonitrile. […] The sheath gas flow was set to 40 units, the auxiliary gas flow was set to 15 units, and the sweep gas flow was set to 1 unit. […] Relative quantitation of polar metabolites was performed with XCalibur QuanBrowser 2.2 (Thermo Fisher Scientific) using a 5 ppm mass tolerance and referencing an in-house library of chemical standards.

[7] = test system: samples from patients with MPN and Post-MPN AML with IDH2^R140Q and JAK2^V617F mutations; experiment: Human colony forming (methylcellulose) assay; assay type: cell-based; settings: Methocult H4435, 400 nM
Procedure: Approval was obtained from the Institutional Review Board at Memorial Sloan-Kettering Cancer Center. Tissues were collected in partnership with the Human Oncology Tissue Bank, and all patients provided informed consent. Fresh peripheral blood was collected into heparinized collection tubes, and separation of peripheral blood mononuclear cells (PBMC) was performed using hetastarch and a Ficoll gradient with subsequent red blood cell lysis.
as §3

[8] = test system: IDH2^R140Q JAK2^V617F mutant LSK; experiment: RNA-sequencing of donor-derived CD45.2 LSK from treated mice (GSEA); assay type: in vivo
Procedure: Before cell of origin transplants, sorting was performed on bone marrow with enrichment for cKit/CD117-positive cells using CD117 MicroBeads (Miltenyi). For expression analysis, sorting was performed on bone marrow that had been depleted of mature cells using Progenitor Cell Enrichment Kit ([…] Technologies).
CD45.2+ LSK cells were sorted into ice cold FACS Buffer, pelleted, and stored in Triazol until extraction of RNA using phenol-chlorophorm. The library was produced using SMARTer amplification (Clontech) amplify and create the library. Illumina sequencing was performed using Paired-End 50 bp at 40×10^6 reads per sample.

[9] = CD45.2 LSK RNA-seq, GSEA, p<1e-4
[10] = stem cells of treated mice versus wild type, Hallmark GSEA

Structure (SMILES)	Mutant donor chimerism, mean change pre- and post-treatment [1]	Erythrocyte progenitors: Pre-erythrocytes (JAK2/IDH2-mutant MPN [2])	Pre-MegE populations (JAK2/IDH2-mutant MPN [2])	Erythrocyte progenitors: CFU-E (JAK2/IDH2-mutant MPN [2])	Erythrocyte progenitors: Pre-CFU-E (JAK2/IDH2-mutant MPN [2])	Total LSK number in the bone marrow (JAK2/IDH2-mutant MPN [2])	Serum 2HG levels (mean) [4]	Splenomegaly: spleen weight (mean) (JAK2/IDH2-mutant MPN [5])	NES, downregulated genes of the combination-therapy signature also altered by monotherapy [8, 9]	other results
CC(C)(O)CNc1nc(Nc2ccnc(C(F)(F)F)c2)nc(-c2cccc(C(F)(F)F)n2)n1 [AG221, 2-methyl-1-[(4-[6-(trifluoromethyl)pyridin-2-yl]-6-{[2-(trifluoromethyl)pyridin-4-yl]amino}-1,3,5-triazin-2-yl)amino]propan-2-ol]	−6.291%	0.03906	0.03906	0.8251	0.1913%	36.43×10^3	744.4 ng/mL	188.3 mg	−2.3	Proportion of CD45.2 myeloid progenitor populations (JAK2/IDH2-mutant MPN [2]; donor-derived cells, number of CD45.1 myeloid progenitors not affected): reduced; Differentiation markers CD235a / CD14 [3]: upregulation; Surface expression of immature marker cKit/CD117 / proportion of c-Kit positive colonies [3]: reduced; Aberrant CD34 expression in megakaryocytes (JAK2/IDH2 mutant MPN; CD34 immunohistochemical stain of bone marrow): resulted the aberrant CD34 expression seen in megakaryocytes; Expansion of spleen blasts (JAK2/IDH2 mutant MPN; histology, compared with untreated JAK2/IDH2 mutant MPN): eliminated the expansion of spleen blasts; 2HG levels in bone marrow aspirates ([6]; after 10 days of treatment): Reduction; Levels of Kreb's cycle intermediates (α-ketoglutarate, citrate, succinate, fumarate, malate) ([6]; bone marrow aspirates, 10 days of treatment, p<0.0252): reduced; BFU-E colonies [7]: presence of BFU-E colonies; Colony number / colony output ([7]; DMSO controls): increase in colony number; NES, upregulated genes of the combination-therapy signature also reversed by monotherapy [8, 9]: +1.9; IL6/JAK/STAT3 gene expression signature [8, 10]: enrichment for expression of genes in this pathway were seen; Interferon gamma signatures [8, 10]: significantly enriched; Oncogenic signatures (cMYC, mTOR, KRAS) [8, 10]: highly significant enrichment
N#CC[C@H](C1CCCC1)n1cc(-c2ncnc3[nH]ccc23)cn1 [ruxolitinib, reference compound]	+3.256%	0.08063	0.08063	0.5553	0.1103%	20.73×10^3	1233 ng/mL	101.3 mg	−2.2	
